# Target: T1, human Cereblon WT GST-tagged protein (Homo sapiens, UniProt Q96SW2)
# T1 construct: purchased CISBIO 64BDCRBNPEH
# Test: CRBN binding, HTRF CEREBLON BINDING kit
# Conditions: CRBN binding, HTRF CEREBLON BINDING kit
# Method: The CEREBLON BINDING kits (specification: 10,000 tests; product number: Catalog #64BDCRBNPEH; CISBIO company) was used to determine the CRBN binding ability of the compounds to be tested through a HTRF method (homogeneous time-resolved fluorescence). The specific methods are as follows: • 1. […] Then, 2.5 μL of human Cereblon WT GST-tagged protein solution was added to each well. Finally, 5 μL of the thoroughly mixed Thalidomide-Re reagent and GST Eu antibody working solution were added to each of the aforementioned wells. […] The blank control wells were sequentially added with 2.5 μL of diluent #9 (1×) solution, 2.5 μL of binding buffer, and 5 μL of thoroughly mixed Thalidomide-Re reagent and GST Eu antibody working solution. • 4. After sealing and incubating the solutions in the aforementioned wells at room temperature for 3 hours, the absorbance values at emission wavelengths of 620 nm and 665 nm were detected by the HTRF method using a Spark microplate reader (V3.1 SP1).
# The corresponding CRBN binding inhibition rate was calculated using the following method:
# [formula] [formula] [formula] • Note: OD 665 nmcompound is the absorbance value of each well of the compounds to be tested of the present disclosure at an emission wavelength of 665 nm. • OD 620 nmcompound is the absorbance value of each well of the compounds to be tested of the present disclosure at an emission wavelength of 620 nm. • OD 665 nmcontrol is the absorbance value of the blank control well at an emission wavelength of 665 nm. • OD 620 nmcontrol is the absorbance value of the blank control well at an emission wavelength of 620 nm. • OD 665 nmStd0 is the absorbance value of the solvent control well at an emission wavelength of 665 nm. • OD 620 nmStd0 is the absorbance value of the solvent control well at an emission wavelength of 620 nm.
# T1 sequence (Q96SW2 whole entry): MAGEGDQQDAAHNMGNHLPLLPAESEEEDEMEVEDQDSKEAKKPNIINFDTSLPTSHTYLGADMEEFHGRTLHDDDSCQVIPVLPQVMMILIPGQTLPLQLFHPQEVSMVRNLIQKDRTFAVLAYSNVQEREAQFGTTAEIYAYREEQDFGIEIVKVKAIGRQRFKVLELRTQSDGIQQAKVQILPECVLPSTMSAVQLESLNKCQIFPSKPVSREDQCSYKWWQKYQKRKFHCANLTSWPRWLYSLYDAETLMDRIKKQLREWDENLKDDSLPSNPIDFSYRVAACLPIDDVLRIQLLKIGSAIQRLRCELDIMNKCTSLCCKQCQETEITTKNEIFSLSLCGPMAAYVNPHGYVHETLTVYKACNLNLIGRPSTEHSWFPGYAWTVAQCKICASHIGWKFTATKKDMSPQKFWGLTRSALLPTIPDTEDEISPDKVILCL
row,SMILES,IC50 [µM]
1,"O=C1CCC(c2ccc(CN3CCC(n4cc(NC(=O)c5cnn6ccc(N7C[C@H]8C[C@@H]7CO8)nc56)c(C(F)F)n4)CC3)cc2)C(=O)N1 (stereo partly drawn) [GT-05050, 5-((1R,4R)-2-oxa-5-azabicyclo[2.2.1]heptan-5-yl)-N-(3-(difluoromethyl)-1-(1-(4-(2,6-dioxopiperidin-3-yl)benzyl)piperidin-4-yl)-1H-pyrazol-4-yl)pyrazolo[1,5-a]pyrimidine-3-carboxamide]",< 0.5
2,"Nc1nc(Nc2ccc(S(=O)(=O)N3CCN(Cc4ccc(N5CCC(=O)NC5=O)cc4)CC3)cc2)nn1C(=O)c1c(F)cccc1F [GT-06751, 1-(4-((4-((4-((5-amino-1-(2,6-difluorobenzoyl)-1H-1,2,4-triazol-3-yl)amino)phenyl)sulfonyl)piperazin-1-yl)methyl)phenyl)dihydropyrimidine-2,4(1H,3H)-dione]",1 to 1.9
3,"O=C1CCC(Nc2cccc(CN3CCC(n4cc(NC(=O)c5cnn6ccc(N7CCOCC7)nc56)c(C(F)F)n4)CC3)c2)C(=O)N1 (centres unmarked) [GT-05801, N-(3-(difluoromethyl)-1-(1-(3-((2,6-dioxopiperidin-3-yl)amino)benzyl)piperidin-4-yl)-1H-pyrazol-4-yl)-5-morpholinopyrazolo[1,5-a]pyrimidine-3-carboxamide]",0.5 to 1
4,"CCc1cc2c(cc1N1CCC(N3CCN(Cc4cccc(N5CCC(=O)NC5=O)c4)CC3)CC1)C(C)(C)c1[nH]c3cc(C#N)ccc3c1C2=O [GT-07310, 8-(4-(4-(3-(2,4-dioxotetrahydropyrimidin-1(2H)-yl)benzyl)piperazin-1-yl)piperidin-1-yl)-9-ethyl-6,6-dimethyl-11-oxo-6,11-dihydro-5H-benzo[b]carbazole-3-carbonitrile]",0.5 to 1
5,"O=C1CCC(c2cnc(F)c(CN3CCN(c4ccc(-c5cc(F)c6c(c5)C(=O)N(C(C(=O)Nc5nccs5)c5ncn7c5CCC7)C6)cc4)CC3)c2)C(=O)N1 (centres unmarked) [GT-07490, 2-(6,7-dihydro-5H-pyrrolo[1,2-c]imidazol-1-yl)-2-(6-(4-(4-((5-(2,6-dioxopiperidin-3-yl)-2-fluoropyridin-3-yl)methyl)piperazin-1-yl)phenyl)-4-fluoro-1-oxoisoindolin-2-yl)-N-(thiazol-2-yl)acetamide]",< 0.5
6,"CCc1cc2c(cc1N1CCC(N3CCN(Cc4ccnc(C5CCC(=O)NC5=O)c4)CC3)CC1)C(C)(C)c1[nH]c3cc(C#N)ccc3c1C2=O (centres unmarked) [GT-07704, 8-(4-(4-((2-(2,6-dioxopiperidin-3-yl)pyridin-4-yl)methyl)piperazin-1-yl)piperidin-1-yl)-9-ethyl-6,6-dimethyl-11-oxo-6,11-dihydro-5H-benzo[b]carbazole-3-carbonitrile]",1 to 1.9
7,"COc1cc2nn(C3CCN(Cc4ccc(N5CCC(=O)NC5=O)cc4)CC3)cc2cc1NC(=O)c1cccc(C(F)(F)F)c1 [GT-04752, N-(2-(1-(4-(2,4-dioxotetrahydropyrimidin-1(2H)-yl)benzyl)piperidin-4-yl)-6-methoxy-2H-indazol-5-yl)-3-(trifluoromethyl)benzamide]",1 to 1.9
8,"COc1cc2nn(C3CCN(Cc4ccc(C5CCC(=O)NC5=O)c(F)c4)CC3)cc2cc1NC(=O)c1cccc(C(F)(F)F)n1 (centres unmarked) [GT-04762, N-(2-(1-(4-(2,6-dioxopiperidin-3-yl)-3-fluorobenzyl)piperidin-4-yl)-6-methoxy-2H-indazol-5-yl)-6-(trifluoromethyl)picolinamide]",1 to 1.9
9,"O=C1CCN(c2ccc(CN3CCC(N4CCN(c5ccc6c(c5)nc(NC(=O)c5cccc(C(F)(F)F)c5)n6[C@H]5CC[C@@H](CO)CC5)CC4)CC3)cc2)C(=O)N1 [GT-05021, N-(5-(4-(1-(4-(2,4-dioxotetrahydropyrimidin-1(2H)-yl)benzyl)piperidin-4-yl)piperazin-1-yl)-1-((1s,4s)-4-(hydroxymethyl)cyclohexyl)-1H-benzo[d]imidazol-2-yl)-3-(trifluoromethyl)benzamide]",1 to 1.9
10,"Cc1cc(S(=O)(=O)N2CCN(Cc3cccc(N4CCC(=O)NC4=O)c3)CC2)ccc1Nc1ncc(Br)c(Nc2cccc(F)c2C(N)=O)n1 [GT-06832, 2-((5-bromo-2-((4-((4-(3-(2,4-dioxotetrahydropyrimidin-1(2H)-yl)benzyl)piperazin-1-yl)sulfonyl)-2-methylphenyl)amino)pyrimidin-4-yl)amino)-6-fluorobenzamide]",< 0.5
11,"O=C1CCN(c2cncc(CN3CCN(c4ccc(-c5cc(F)c6c(c5)C(=O)N(C(C(=O)Nc5nccs5)c5ncn7c5CCC7)C6)cc4)CC3)c2)C(=O)N1 (centres unmarked) [GT-07380, 2-(6,7-dihydro-5H-pyrrolo[1,2-c]imidazol-1-yl)-2-(6-(4-(4-((5-(2,4-dioxotetrahydropyrimidin-1(2H)-yl)pyridin-3-yl)methyl)piperazin-1-yl)phenyl)-4-fluoro-1-oxoisoindolin-2-yl)-N-(thiazol-2-yl)acetamide]",< 0.5
12,"Cc1cc(-c2nc(C(=O)Nc3cc4oc(N5CCN(Cc6cccc(N7CCC(=O)NC7=O)c6)CC5)nc4nc3N3CC[C@@H](O)C3)co2)ccn1 [GT-05808, (R)—N-(2-(4-(3-(2,4-dioxotetrahydropyrimidin-1(2H)-yl)benzyl)piperazin-1-yl)-5-(3-hydroxypyrrolidin-1-yl)oxazolo[4,5-b]pyridin-6-yl)-2-(2-methylpyridin-4-yl)oxazole-4-carboxamide]",0.5 to 1
13,"O=C1CCN(c2ccc(CN3CCN(C4CCN(c5ccc(-c6cc(F)c7c(c6)C(=O)N(C(C(=O)Nc6nccs6)c6ncn8c6CCC8)C7)cc5)CC4)CC3)nc2)C(=O)N1 (centres unmarked) [GT-06246, 2-(6,7-dihydro-5H-pyrrolo[1,2-c]imidazol-1-yl)-2-(6-(4-(4-(4-((5-(2,4-dioxotetrahydropyrimidin-1(2H)-yl)pyridin-2-yl)methyl)piperazin-1-yl)piperidin-1-yl)phenyl)-4-fluoro-1-oxoisoindolin-2-yl)-N-(thiazol-2-yl)acetamide]",< 0.5

# Continued, values first:
row,IC50 [µM],SMILES
1,0.5 to 1,"O=C1CCC(Nc2cccc(CN3C[C@@H]4C[C@H]3CN4c3ccc(-c4cc(F)c5c(c4)C(=O)N(C(C(=O)Nc4nccs4)c4ncn6c4CCC6)C5)cc3)c2)C(=O)N1 (stereo partly drawn) [GT-05118, 2-(6,7-dihydro-5H-pyrrolo[1,2-c]imidazol-1-yl)-2-(6-(4-((1S,4S)-5-(3-((2,6-dioxopiperidin-3-yl)amino)benzyl)-2,5-diazabicyclo[2.2.1]heptan-2-yl)phenyl)-4-fluoro-1-oxoisoindolin-2-yl)-N-(thiazol-2-yl)acetamide]"
2,1 to 1.9,"O=C1CCC(c2cc(CN3CCN(c4ccc(-c5cc(F)c6c(c5)C(=O)N(C(C(=O)Nc5nccs5)c5ncn7c5CCC7)C6)cc4)CC3)ccn2)C(=O)N1 (centres unmarked) [GT-07392, 2-(6,7-dihydro-5H-pyrrolo[1,2-c]imidazol-1-yl)-2-(6-(4-(4-((2-(2,6-dioxopiperidin-3-yl)pyridin-4-yl)methyl)piperazin-1-yl)phenyl)-4-fluoro-1-oxoisoindolin-2-yl)-N-(thiazol-2-yl)acetamide]"
3,0.5 to 1,"CN(Cc1ccnc(C2CCC(=O)NC2=O)c1)C1CCN(c2ccc(-c3cc(F)c4c(c3)C(=O)N(C(C(=O)Nc3nccs3)c3ncn5c3CCC5)C4)cc2)CC1 (centres unmarked) [GT-07473, 2-(6,7-dihydro-5H-pyrrolo[1,2-c]imidazol-1-yl)-2-(6-(4-(4-(((2-(2,6-dioxopiperidin-3-yl)pyridin-4-yl)methyl)(methyl)amino)piperidin-1-yl)phenyl)-4-fluoro-1-oxoisoindolin-2-yl)-N-(thiazol-2-yl)acetamide]"
4,0.5 to 1,"CCc1cc2c(cc1N1CCN(Cc3ccc(C4CCC(=O)NC4=O)cc3)CC1)C(C)(C)c1[nH]c3cc(C#N)ccc3c1C2=O (centres unmarked) [GT-07323, 8-(4-(4-(2,6-dioxopiperidin-3-yl)benzyl)piperazin-1-yl)-9-ethyl-6,6-dimethyl-11-oxo-6,11-dihydro-5H-benzo[b]carbazole-3-carbonitrile]"
5,< 0.5,"CCc1cc2c(cc1N1CCC(N3CCN(Cc4ccc(C5CCC(=O)NC5=O)cn4)CC3)CC1)C(C)(C)c1[nH]c3cc(C#N)ccc3c1C2=O (centres unmarked) [GT-07705, 8-(4-(4-((5-(2,6-dioxopiperidin-3-yl)pyridin-2-yl)methyl)piperazin-1-yl)piperidin-1-yl)-9-ethyl-6,6-dimethyl-11-oxo-6,11-dihydro-5H-benzo[b]carbazole-3-carbonitrile]"
6,0.5 to 1,"O=C1CCN(c2ccc(CN3CCC(N4CCN(c5ccc(-c6cc(F)c7c(c6)C(=O)N(C(C(=O)Nc6nccs6)c6ncn8c6CCC8)C7)cc5)CC4)CC3)cc2)C(=O)N1 (centres unmarked) [GT-06327, 2-(6,7-dihydro-5H-pyrrolo[1,2-c]imidazol-1-yl)-2-(6-(4-(4-(1-(4-(2,4-dioxotetrahydropyrimidin-1(2H)-yl)benzyl)piperidin-4-yl)piperazin-1-yl)phenyl)-4-fluoro-1-oxoisoindolin-2-yl)-N-(thiazol-2-yl)acetamide]"
7,> 10,"C=CC(=O)N1CCC(c2ccc(C(N)=O)c(-c3ccc(Oc4ccccc4)cc3)n2)CC1 [Orelabrutinib, reference compound]"
